Test [1] has as its system Chenopodium album. The test can be described thus: Post-emergence herbicidal activity against Chenopodium album seedlings assessed as plant growth inhibition at 75 g ai/ha measured 15 days after compound treatment under greenhouse conditions. The class given is functional. Conditions: 360 h, read-out: GI.
The subject of test [2] is Chenopodium album. The test can be described thus: Post-emergence herbicidal activity against Chenopodium album seedlings assessed as plant growth inhibition at 37.5 g ai/ha measured 15 days after compound treatment under greenhouse conditions. The class given is functional. The note with it: 360 h, read-out: GI.
For test [3], the system named is Chenopodium album. The test can be described thus: Post-emergence herbicidal activity against Chenopodium album seedlings assessed as plant growth inhibition at 150 g ai/ha measured 15 days after compound treatment under greenhouse conditions. The note with it: 360 h, read-out: GI. The class given is functional.
Test [4] concerns Amaranthus retroflexus. Kind of test: Post emergence herbicidal activity against Amaranthus retroflexus seedlings assessed as plant growth inhibition at 75 g ai/ha measured 15 days after compound treatment under greenhouse conditions. The class given is functional. The note with it: 360 h, read-out: GI.
Test [5] deals with Amaranthus retroflexus. Kind of test: Post emergence herbicidal activity against Amaranthus retroflexus seedlings assessed as plant growth inhibition at 37.5 g ai/ha measured 15 days after compound treatment under greenhouse conditions. Type of test: functional. The note with it: 360 h, read-out: GI.
Test [6] deals with Amaranthus retroflexus. Kind of test: Post emergence herbicidal activity against Amaranthus retroflexus seedlings assessed as plant growth inhibition at 150 g ai/ha measured 15 days after compound treatment under greenhouse conditions. The class given is functional. The note with it: 360 h, read-out: GI.
For test [7], the system named is Brassica juncea. Kind of test: Post-emergence herbicidal activity against Brassica juncea seedlings assessed as plant growth inhibition at 75 g ai/ha measured 15 days after compound treatment under greenhouse conditions. The class given is functional. Conditions: 360 h, read-out: GI.
Test [8] has as its system Brassica juncea. The test can be described thus: Post-emergence herbicidal activity against Brassica juncea seedlings assessed as plant growth inhibition at 37.5 g ai/ha measured 15 days after compound treatment under greenhouse conditions. The class given is functional. Conditions: 360 h, read-out: GI.
For test [9], the system named is Brassica juncea. Kind of test: Post-emergence herbicidal activity against Brassica juncea seedlings assessed as plant growth inhibition at 150 g ai/ha measured 15 days after compound treatment under greenhouse conditions. The class given is functional. Conditions: 360 h, read-out: GI.
The test system of test [10] is Setaria faberi. Kind of test: Post-emergence herbicidal activity against Setaria faberi (Giant Foxtail) seedlings assessed as plant growth inhibition at 75 g ai/ha measured 15 days after compound treatment under greenhouse conditions. The class given is functional. Conditions: 360 h, read-out: GI.
In test [11] the test system is Setaria faberi. The test can be described thus: Post-emergence herbicidal activity against Setaria faberi (Giant Foxtail) seedlings assessed as plant growth inhibition at 37.5 g ai/ha measured 15 days after compound treatment under greenhouse conditions. Type of test: functional. Conditions: 360 h, read-out: GI.
For test [12], the system named is Setaria faberi. Kind of test: Post-emergence herbicidal activity against Setaria faberi (Giant Foxtail) seedlings assessed as plant growth inhibition at 150 g ai/ha measured 15 days after compound treatment under greenhouse conditions. Type of test: functional. Conditions: 360 h, read-out: GI.
Test [13] deals with Digitaria sanguinalis. Kind of test: Post-emergence herbicidal activity against Digitaria sanguinalis (hairy crabgrass) seedlings assessed as plant growth inhibition at 75 g ai/ha measured 15 days after compound treatment under greenhouse conditions. Type of test: functional. Conditions: 360 h, read-out: GI.
Test [14] relates to Digitaria sanguinalis. The test can be described thus: Post-emergence herbicidal activity against Digitaria sanguinalis (hairy crabgrass) seedlings assessed as plant growth inhibition at 37.5 g ai/ha measured 15 days after compound treatment under greenhouse conditions. Type of test: functional. Conditions: 360 h, read-out: GI.
The test system of test [15] is Digitaria sanguinalis. Kind of test: Post-emergence herbicidal activity against Digitaria sanguinalis (hairy crabgrass) seedlings assessed as plant growth inhibition at 150 g ai/ha measured 15 days after compound treatment under greenhouse conditions. Type of test: functional. The note with it: 360 h, read-out: GI.
In test [16] the test system is Echinochloa crus-galli. The test can be described thus: Post emergence herbicidal activity against Echinochloa crus-galli (barnyard grass) seedlings assessed as plant growth inhibition at 75 g ai/ha measured 15 days after compound treatment under greenhouse conditions. The class given is functional. The note with it: 360 h, read-out: GI.
Test [17] has as its system Echinochloa crus-galli. The test can be described thus: Post emergence herbicidal activity against Echinochloa crus-galli (barnyard grass) seedlings assessed as plant growth inhibition at 37.5 g ai/ha measured 15 days after compound treatment under greenhouse conditions. Type of test: functional. Conditions: 360 h, read-out: GI.
For test [18], the system named is Echinochloa crus-galli. Kind of test: Post emergence herbicidal activity against Echinochloa crus-galli (barnyard grass) seedlings assessed as plant growth inhibition at 150 g ai/ha measured 15 days after compound treatment under greenhouse conditions. The class given is functional. Conditions: 360 h, read-out: GI.
In test [19] the target is T1, Protoporphyrinogen oxidase, chloroplastic (Nicotiana tabacum, UniProt O24163).
T1 sequence (O24163 whole entry): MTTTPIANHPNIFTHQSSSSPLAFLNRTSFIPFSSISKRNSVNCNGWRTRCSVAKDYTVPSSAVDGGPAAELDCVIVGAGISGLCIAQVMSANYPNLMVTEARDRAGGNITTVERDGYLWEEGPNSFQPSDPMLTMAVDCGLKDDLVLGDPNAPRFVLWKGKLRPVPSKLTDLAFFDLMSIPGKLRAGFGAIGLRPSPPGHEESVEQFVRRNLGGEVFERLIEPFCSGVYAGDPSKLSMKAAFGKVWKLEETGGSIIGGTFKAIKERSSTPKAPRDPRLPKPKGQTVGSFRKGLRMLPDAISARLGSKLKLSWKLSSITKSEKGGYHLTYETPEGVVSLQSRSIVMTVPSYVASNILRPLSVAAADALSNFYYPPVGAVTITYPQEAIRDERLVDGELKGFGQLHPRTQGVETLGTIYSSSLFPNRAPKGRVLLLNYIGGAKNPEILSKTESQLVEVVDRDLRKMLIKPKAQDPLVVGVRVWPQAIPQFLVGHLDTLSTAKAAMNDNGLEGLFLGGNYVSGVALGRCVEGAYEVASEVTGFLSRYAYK
The test can be described thus: Inhibition of Nicotiana tabacum (tobacco) recombinant PPO assessed as protoporphyrin IX formation at room temperature by fluorimetric assay.

The results in this text go back to ChEMBL document CHEMBL3046000, “Design and synthesis of 1-(benzothiazol-5-yl)-1H-1,2,4-triazol-5-ones as protoporphyrinogen oxidase inhibitors” (Bioorg Med Chem, 2013).

Usually Ki stands for the equilibrium dissociation constant of an inhibitor or competing ligand from its target. For the compound `Cc1nn(-c2cc3nc(SCCC(=O)O)sc3cc2Cl)c(=O)n1C(F)F`, the inhibition of growth at 75 g/ha in the test with Chenopodium album [1] was below 50%; with Amaranthus retroflexus [4] it was below 50%; in the test on Brassica juncea [7], 60%; in the test with Setaria faberi [10], 60%; in the test with Digitaria sanguinalis [13], below 50%; in the test on Echinochloa crus-galli [16] it was 50%. Also, the inhibition of growth at 37.5 g/ha with Chenopodium album [2] is below 50%; with Amaranthus retroflexus [5] it was below 50%; with Brassica juncea [8], 50%; in the test with Setaria faberi [11], 60%; with Digitaria sanguinalis [14], below 50%; in the test with Echinochloa crus-galli [17], 50%. Besides, the inhibition of growth at 150 g/ha in the test on Chenopodium album [3] is at least 90%; with Amaranthus retroflexus [6], at least 90%; with Brassica juncea [9], at least 90%; in the test with Setaria faberi [12], below 50%; with Digitaria sanguinalis [15], below 50%; in the test with Echinochloa crus-galli [18], below 50%. Further, in test [19], the Ki was determined as 17.8 µM.
